Our source for the IC50 values is patent US9415055B2, “Cyclic amines” (H. Lundbeck A/S, priority 2012, dated 2016).

One may read the IC50 as the concentration that gives 50% inhibition.

The target in this experiment is P2X7 receptor (Homo sapiens (Human), UniProt Q99572). Put plainly: P2X7 FLIPR assay: antagonism of BzATP response in 293 HEK cells stably expressing P2X7 receptor. The class given is cell-based. Particulars: FLIPR fluorescence (Fluo-4), agonist BzATP, 293 HEK cells stably transfected with P2X7 receptor. An outline of the steps: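 Antagonist IC50 derived from FLIPR Tetra Fluo-4 calcium signal evoked by BzATP. Compound pre-incubation was 30 min at room temperature on P2X7-expressing HEK293 cells, seeded 24 h before in low-serum medium and dye-loaded 30 min at 37 °C then 30 min at RT.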
Chain of P2X7 receptor (Q99572 whole entry): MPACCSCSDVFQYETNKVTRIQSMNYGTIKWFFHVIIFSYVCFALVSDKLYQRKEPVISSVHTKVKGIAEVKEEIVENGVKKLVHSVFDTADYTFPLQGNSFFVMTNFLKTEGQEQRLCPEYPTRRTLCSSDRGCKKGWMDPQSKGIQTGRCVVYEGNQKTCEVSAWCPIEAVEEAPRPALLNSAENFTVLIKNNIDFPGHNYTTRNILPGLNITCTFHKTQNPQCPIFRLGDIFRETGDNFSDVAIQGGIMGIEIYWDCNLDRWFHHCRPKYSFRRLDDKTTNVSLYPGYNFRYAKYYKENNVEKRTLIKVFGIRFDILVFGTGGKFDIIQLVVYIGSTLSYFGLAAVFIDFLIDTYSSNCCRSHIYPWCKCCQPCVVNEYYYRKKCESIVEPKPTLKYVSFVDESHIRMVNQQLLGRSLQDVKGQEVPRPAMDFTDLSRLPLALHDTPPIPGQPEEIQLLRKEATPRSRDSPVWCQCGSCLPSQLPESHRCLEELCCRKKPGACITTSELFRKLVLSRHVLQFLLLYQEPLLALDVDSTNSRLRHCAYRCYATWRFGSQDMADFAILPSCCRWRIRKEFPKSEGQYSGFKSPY

In turn, `Cc1ncc(C(CNC(=O)c2cccc(Cl)c2Cl)N2CCC(F)CC2)cn1` (single isomer, unassigned; (-)) [(−)2,3-dichloro-N-[2-(4-fluoro-1-piperidyl)-2-(2-methylpyrim] [(−)2,3-dichloro-N-(2-(4-fluoropiperidin-1-yl)-2-(2-methylpyrimidin-5-yl)ethyl)benzamide] came in with an IC50 of 14 nM.
The value for `O=C(NCC(c1ccc(C(F)(F)F)nc1)N1CCC(F)(F)CC1)c1cccc(F)c1Cl` (single isomer, unassigned; (+)) [(+)2-chloro-N-[2-(4,4-difluoro-1-piperidyl)-2-[6-(trifluorom] [(+)2-chloro-N-(2-(4,4-difluoropiperidin-1-yl)-2-(2-(trifluoromethyl)pyridin-5-yl)ethyl)-3-fluorobenzamide] was 1.7 nM; that for `COc1cccc(C(=O)NCC(c2cnc(C(F)(F)F)nc2)N2CCC(F)(F)CC2)c1Cl` (single isomer, unassigned; (+)) [(+)2-chloro-N-[2-(4,4-difluoro-1-piperidyl)-2-[2-(trifluorom] [(+)2-chloro-N-(2-(4,4-difluoropiperidin-1-yl)-2-(2-(trifluoromethyl)pyrimidin-5-yl)ethyl)-3-methoxybenzamide] was 3.6 nM.
For `O=C(NCC(c1ccc(C(F)F)nc1)N1CCC(F)(F)CC1)c1cccc(Cl)c1Cl` (single isomer, unassigned; (+)) [(+)2,3-dichloro-N-[2-[6-(difluoromethyl)-3-pyridyl]-2-(4,4-d] [(+)2,3-dichloro-N-(2-(2-(difluoromethyl)pyridin-5-yl)-2-(4,4-difluoropiperidin-1-yl)ethyl)benzamide], the IC50 came out at 2.4 nM.
Regarding `CCc1ncc(C(CNC(=O)c2c(F)cccc2Cl)N2CCC(F)(F)CC2)cn1` (single isomer, unassigned; (-)) [(−)2-chloro-N-[2-(4,4-difluoro-1-piperidyl)-2-(2-ethylpyrimi] [(−)2-chloro-6-fluoro-N-(2-(4,4-difluoropiperidin-1-yl)-2-(2-ethylpyrimidin-5-yl)ethyl)benzamide], the IC50 amounted to 36 nM.
As for `O=C(NC[C@H](c1ccc(Cl)cc1)N1CCOCC1)c1cccc(Cl)c1Cl` [2,3-Dichloro-N-[(S)-2-(4-chloro-phenyl)-2-morpholin-4-yl-ethyl]benzamide], the IC50 is 0.62 nM.
Regarding `O=C(NCC(c1cnc(C(F)(F)F)nc1)N1CCC(F)CC1)c1c(Cl)cccc1Cl` (single isomer, unassigned; (+)) [(+)2,6-dichloro-N-[2-(4-fluoro-1-piperidyl)-2-[2-(trifluorom] [(+)2,6-dichloro-N-(2-(4-fluoropiperidin-1-yl)-2-(2-(trifluoromethyl)pyrimidin-5-yl)ethyl)benzamide], the IC50 is 6.1 nM.
Compound `O=C(NCC(c1cnc(C2CC2)nc1)N1CCC(F)(F)CC1)c1cccc(Cl)c1Cl` (single isomer, unassigned; (-)) [(−)2,3-dichloro-N-[2-(2-cyclopropylpyrimidin-5-yl)-2-(4,4-di] [(−)2,3-dichloro-N-(2-(2-cyclopropylpyrimidin-5-yl)-2-(4,4-difluoropiperidin-1-yl)ethyl)benzamide] yielded an IC50 of 3.5 nM.
In the case of `COc1cccc(C(=O)NCC(c2ccc(F)cc2)N2CCC(F)(F)CC2)c1Cl` (single isomer, unassigned; (-)) [(−)2-chloro-N-(2-(4,4-difluoropiperidin-1-yl)-2-(4-fluorophenyl)ethyl)-3-methoxybenzamide], the 50% inhibitory concentration (IC50) amounted to 2.6 nM. This IC50 and that of the compound before are within 1.5-fold of each other.
As for `Cc1ncc(C(CNC(=O)c2c(Cl)cccc2Cl)N2CCOCC2)cn1` (centres unmarked) [2,6-dichloro-N-(2-(2-methylpyrimidin-5-yl)-2-morpholinoethyl)benzamide], the IC50 was found to be 120 nM.
To `Cc1ncc(C(CNC(=O)c2c(F)cccc2Cl)N2CCC(F)(F)CC2)cn1` (single isomer, unassigned; (+)) [(+)2-chloro-N-[2-(4,4-difluoro-1-piperidyl)-2-(2-methylpyrim] [(+)2-chloro-6-fluoro-N-(2-(4,4-difluoropiperidin-1-yl)-2-(2-methylpyrimidin-5-yl)ethyl)benzamide] belongs 19 nM; to `Cc1ncc(C(CNC(=O)c2ccccc2Cl)N2CCC(F)(F)CC2)cn1` (single isomer, unassigned; (-)) [(−)2-chloro-N-[2-(4,4-difluoro-1-piperidyl)-2-(2-methylpyrim] [(−)2-chloro-N-[2-(4,4-difluoro-1-piperidyl)-2-(2-methylpyrimidin-5-yl)ethyl]benzamide], 24 nM; to `Cc1ncc(C(CNC(=O)c2c(Cl)ccc(F)c2Cl)N2CCC(F)(F)CC2)cn1` (single isomer, unassigned; (-)) [(−)2,6-dichloro-N-[2-(4,4-difluoro-1-piperidyl)-2-(2-methylp] [(−)2,6-dichloro-5-fluoro-N-(2-(4,4-difluoropiperidin-1-yl)-2-(2-methylpyrimidin-5-yl)ethyl)benzamide], 37 nM.
The value for `Cc1ncc(C(CNC(=O)c2cccc(OC(F)(F)F)c2Cl)N2CCC(F)(F)CC2)cn1` (single isomer, unassigned; (+)) [(+)2-chloro-N-[2-(4,4-difluoro-1-piperidyl)-2-(2-methylpyrim] [(+)2-chloro-N-(2-(4,4-difluoropiperidin-1-yl)-2-(2-methylpyrimidin-5-yl)ethyl)-3-(trifluoromethoxy)benzamide] was 21 nM; that for `O=C(NCC(c1cnc(C(F)F)nc1)N1CCOCC1)c1cccc(Cl)c1Cl` (single isomer, unassigned; (+)) [(+)2,3-dichloro-N-[2-[2-(difluoromethyl)pyrimidin-5-yl]-2-mo] [(+)2,3-dichloro-N-(2-(2-(difluoromethyl)pyrimidin-5-yl)-2-morpholinoethyl)benzamide] was 3.9 nM; that for `CCc1ncc(C(CNC(=O)c2c(F)cccc2Cl)N2CCC(F)(F)CC2)cn1` (single isomer, unassigned; (+)) [(+)2-chloro-N-[2-(4,4-difluoro-1-piperidyl)-2-(2-ethylpyrimi] [(+)2-chloro-6-fluoro-N-(2-(4,4-difluoropiperidin-1-yl)-2-(2-ethylpyrimidin-5-yl)ethyl)benzamide] was 14 nM.
Compound `O=C(NCC(c1ccc(C(F)F)nc1)N1CCC(F)(F)CC1)c1ccccc1Cl` (single isomer, unassigned; (+)) [(+)2-chloro-N-[2-[6-(difluoromethyl)-3-pyridyl]-2-(4,4-diflu] [(+)2-chloro-N-(2-(2-(difluoromethyl)pyridin-5-yl)-2-(4,4-difluoropiperidin-1-yl)ethyl)benzamide] showed an IC50 of 9 nM.
The value for `CS(=O)(=O)c1ccc(Cl)c(C(=O)NCC(c2ccc(C(F)(F)F)nc2)N2CCOCC2)c1` (single isomer, unassigned; (-)) [(−)2-chloro-5-methylsulfonyl-N-[2-morpholino-2-[6-(trifluoro] [(−)2-chloro-5-(methylsulfonyl)-N-(2-morpholino-2-(6-(trifluoromethyl)pyridin-3-yl)ethyl)benzamide] was 51 nM; that for `COc1cccc(C(=O)NCC(c2cnc(C(F)(F)F)nc2)N2CCOCC2)c1Cl` (single isomer, unassigned; (+)) [(+)2-chloro-3-methoxy-N-[2-morpholino-2-[2-(trifluoromethyl)] [(+)2-chloro-3-methoxy-N-(2-morpholino-2-(2-(trifluoromethyl)pyrimidin-5-yl)ethyl)benzamide] was 16 nM.
To `COc1cccc(C(=O)NCC(c2cnc(C)nc2)N2CCC(F)(F)CC2)c1Cl` (single isomer, unassigned; (+)) [(+)2-chloro-N-[2-(4,4-difluoro-1-piperidyl)-2-(2-methylpyrim] [(+)2-chloro-3-methoxy-N-(2-(4,4-difluoropiperidin-1-yl)-2-(2-methylpyrimidin-5-yl)ethyl)benzamide] belongs 12 nM; to `O=C(NCC(c1cnc(C(F)(F)F)nc1)N1CCOCC1)c1cccc(Cl)c1Cl` (single isomer, unassigned; (+)) [(+)2,3-dichloro-N-[2-morpholino-2-[2-(trifluoromethyl)pyrimi] [(+)2,3-Dichloro-N-[2-morpholino-2-[2-(trifluoromethyl)pyrimidin-5-yl]ethyl]benzamide], 4.8 nM; to `Cc1ncc(C(CNC(=O)c2ccccc2Cl)N2CCCC(F)(F)C2)cn1` (single isomer, unassigned; (+)) [(+)2-chloro-N-[2-(3,3-difluoro-1-piperidyl)-2-(2-methylpyrim] [(+)2-chloro-N-(2-(3,3-difluoropiperidin-1-yl)-2-(2-methylpyrimidin-5-A)ethyl)benzamide], 85 nM.
`O=C(NCC(c1ccc(F)cc1)N1CCC(F)(F)CC1)c1cccc(Cl)c1Cl` (centres unmarked) [2,3-Dichloro-N-[2-(4,4-difluoro-piperidin-1-yl)-2-(4-fluoro-phenyl)-ethyl]-benzamide] displayed an IC50 of 0.33 nM. This IC50 lies about 260-fold lower than the previous one.
Compound `CCc1ncc(C(CNC(=O)c2ccccc2Cl)N2CCC(F)(F)CC2)cn1` (single isomer, unassigned; (-)) [(−)2-chloro-N-[2-(4,4-difluoro-1-piperidyl)-2-(2-ethylpyrimi] [(−)2-chloro-N-(2-(4,4-difluoropiperidin-1-yl)-2-(2-ethylpyrimidin-5-yl)ethyl)benzamide] registered an IC50 of 17 nM.
The value for `Cc1ncc(C(CNC(=O)c2cccc(Cl)c2Cl)N2CCC(=O)CC2)cn1` (centres unmarked) [2,3-Dichloro-N-(2-(2-methylpyrimidin-5-yl)-2-(4-oxopiperidin-1-yl)ethyl)benzamide] was 19 nM; that for `O=C(NCC(c1cnc(C(F)(F)F)nc1)N1CCOCC1)c1cccc(C(F)(F)F)c1Cl` (single isomer, unassigned; (+)) [(+)2-chloro-N-[2-morpholino-2-[2-(trifluoromethyl)pyrimidin-] [(+)2-Chloro-N-[2-morpholino-2-[2-(trifluoromethyl)pyrimidin-5-yl]ethyl]-3-(trifluoromethyl)benzamide] was 17 nM.
